Measured values reported in PubChem BioAssay (NCI).
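Grown in 96-well plates, cells were treated for 48 hours with each compound at five concentrations. Insufficient inhibition: endpoint recorded as highest concentration tested. TGI marks complete inhibition of growth.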

Assays:
Experiment in all cases: NCI-60 cell line screen, 48 h
SR leukemia = test system: SR leukemia
NCI-H23 lung = test system: NCI-H23 lung
A549 NSCLC = test system: A549 NSCLC
KM12 colon = test system: KM12 colon
786-0 renal = test system: 786-0 renal
HT29 colon = test system: HT29 colon
SF-268 CNS = test system: SF-268 CNS
SNB-78 CNS = test system: SNB-78 CNS
HOP-62 NSCLC = test system: HOP-62 NSCLC
OVCAR-8 ovarian = test system: OVCAR-8 ovarian
HCT-15 colon = test system: HCT-15 colon
HOP-92 NSCLC = test system: HOP-92 NSCLC
UO-31 renal = test system: UO-31 renal
NCI-H522 lung = test system: NCI-H522 lung
HCC-2998 colon = test system: HCC-2998 colon
EKVX NSCLC = test system: EKVX NSCLC
SK-MEL-5 melanoma = test system: SK-MEL-5 melanoma
HS 578T breast = test system: HS 578T breast
MCF7 breast = test system: MCF7 breast
T-47D breast = test system: T-47D breast

SMILES | TGI (SR leukemia) [µM] | TGI (NCI-H23 lung) [µM] | TGI (A549 NSCLC) [µM] | TGI (KM12 colon) [µM] | TGI (786-0 renal) [µM] | TGI (HT29 colon) [µM] | TGI (SF-268 CNS) [µM] | TGI (SNB-78 CNS) [µM] | TGI (HOP-62 NSCLC) [µM] | TGI (OVCAR-8 ovarian) [µM] | TGI (HCT-15 colon) [µM] | TGI (HOP-92 NSCLC) [µM] | TGI (UO-31 renal) [µM] | TGI (NCI-H522 lung) [µM] | TGI (HCC-2998 colon) [µM] | TGI (EKVX NSCLC) [µM] | TGI (SK-MEL-5 melanoma) [µM] | TGI (HS 578T breast) [µM] | TGI (MCF7 breast) [µM] | TGI (T-47D breast) [µM]
CC(=O)NC(ON1C(=O)COc2ccccc21)C(Cl)(Cl)Cl (centres undefined) | > 100 | > 100 | > 100 | > 100 | > 100 | > 100 | > 100 | > 100 | > 100 | > 100 | > 100 | > 100 | > 100 | > 100 | > 100 | – | – | – | – | –
COC(=O)C(C(=O)C(=O)Nc1c(Cl)cc([N+](=O)[O-])cc1Cl)c1nc2cc(C)c(C)cc2[nH]c1=O (centres undefined) | – | > 100 | > 100 | > 100 | > 100 | > 100 | > 100 | > 100 | > 100 | > 100 | > 100 | > 100 | > 100 | > 100 | > 100 | > 100 | – | – | – | –
CC(=O)N(/N=C\c1ccc([N+](=O)[O-])cc1)c1ccccc1 | – | > 100 | > 100 | > 100 | > 100 | > 100 | > 100 | > 100 | > 100 | > 100 | > 100 | > 100 | > 100 | – | > 100 | > 100 | > 100 | – | – | –
CCN(CC)CC(O)CNc1ccc(NCC(O)CCl)c2c1C(=O)c1ccccc1C2=O (centres undefined) | 11.6 | 18.1 | 24.4 | 17 | 15.9 | 16.5 | 19.9 | 22.8 | 25.6 | 20.6 | 19.9 | 18.2 | 17.9 | 13.5 | 21.6 | 29.5 | 22.1 | 31 | 15.3 | 38.7
Cc1ccc(/C=C/C(=O)c2sc(C(N)=S)nc2C)cc1 | – | > 100 | > 100 | > 100 | > 100 | > 100 | > 100 | > 100 | > 100 | > 100 | > 100 | > 100 | > 100 | > 100 | > 100 | > 100 | > 100 | – | – | –
C=CC1(c2ccc(Cl)c(Cl)c2)OCCO1 | > 100 | > 100 | > 100 | > 100 | > 100 | > 100 | > 100 | – | 22.8 | > 100 | > 100 | > 100 | > 100 | > 100 | > 100 | > 100 | > 100 | > 100 | > 100 | > 100
CN(C)C(=O)c1nnsc1NN=O | > 100 | > 100 | > 100 | > 100 | > 100 | > 100 | > 100 | – | > 100 | > 100 | > 100 | > 100 | > 100 | > 100 | > 100 | > 100 | > 100 | > 100 | > 100 | > 100
CC(C)CC(=O)N1CCN(C(=O)CC(C)C)c2ccccc21 | – | > 100 | > 100 | > 100 | > 100 | > 100 | > 100 | > 100 | > 100 | > 100 | – | > 100 | > 100 | > 100 | > 100 | > 100 | – | – | – | –
COC(=O)C(CCC1(C)OCCO1)C(C)=O (centres undefined) | > 100 | > 100 | > 100 | > 100 | > 100 | > 100 | > 100 | > 100 | > 100 | > 100 | > 100 | – | > 100 | > 100 | > 100 | > 100 | > 100 | – | – | –
CC(=O)O[C@@]12[C@@H]3O[C@@]4(O)C[C@]5(C)[C@H]6C[C@@](C(C)C)(O[C@H]5c5ccoc5)O[C@H]1[C@]6(C4)O[C@]2(O)C(C)=CC3(C)C | > 100 | > 100 | > 100 | > 100 | > 100 | > 100 | > 100 | – | > 100 | > 100 | > 100 | > 100 | > 100 | > 100 | > 100 | > 100 | > 100 | > 100 | > 100 | > 100
Cc1cc(=O)cc2sc3cc(Cl)ccc3nc1-2 | 10.3 | 42.8 | 17.8 | 24.5 | 29 | 43.3 | 79.5 | > 100 | 29.7 | 44.6 | 16 | 57.7 | 63.1 | 7.65 | 24.6 | 25 | 12.6 | – | – | –
CC(C)(C)C1CCC2c3c([nH]c4ccccc34)C3C(=O)N(c4cccc(Cl)c4)C(=O)C3C2C1 (centres undefined) | > 36 | 25.3 | > 55.8 | 14.5 | 22 | 20 | 32.4 | – | 18 | > 55.6 | 42.6 | 18.9 | 15.1 | 34.5 | 12.4 | 43.7 | 26.3 | > 68.1 | 4.22 | 48.7
COc1ccc(-c2cn3c(nc4ccccc43)c(C)n2)cc1 | > 100 | > 100 | > 100 | > 100 | > 100 | > 100 | > 100 | – | > 100 | > 96.6 | > 100 | > 100 | > 64.6 | > 100 | > 100 | > 100 | > 100 | > 100 | > 100 | > 67.3
CC(C)=C1C(=O)C[C@]2(C)C/C=C(\C)CC/C=C(\C)CC[C@@H]12 | 28.3 | 23.9 | > 50 | 16.1 | 16.7 | 16.4 | 18 | – | 18.5 | 16 | 15.4 | 19.3 | 15.1 | 13.9 | 14.9 | 32.5 | 15.5 | 28 | 30.4 | > 50
C/C=C/C=C/C1=NN(c2cccc(S(=O)(=O)O)c2)C2(C1)C(Cl)C(=O)N2c1nc2ccccc2s1 (centres undefined) | > 54.3 | 32.1 | 28.3 | 27.3 | 26.7 | 33.3 | 38.4 | – | 36.2 | > 54.8 | 31.4 | 48.2 | 4.15 | 13.3 | 31.5 | 35.6 | 25.1 | > 90.3 | 27 | 21.3
C/C(Sc1ccccc1)=C1/CCCN(Cc2ccccc2)C1 | 35.7 | 79.5 | > 100 | 98.2 | 50.3 | > 100 | > 100 | – | 61.4 | > 100 | 42.5 | 51.9 | 40.9 | 38.8 | 53.3 | > 100 | 28.6 | 41.4 | 57.5 | 33.5
CC(C)Cc1ccc(C(C)/C=C2\CCC(CN3CCOCC3)C2=O)cc1 (centres undefined) | 13.8 | 29.4 | 34.8 | 16.9 | 3.21 | 16.7 | 15.9 | > 72.8 | 19.3 | 12.3 | 16.4 | 39.7 | 21.8 | 15.4 | 24.1 | 32.8 | 24.3 | > 100 | 19.9 | –
Cn1c(=O)c2c(ncn2CCCCn2ccnc2[N+](=O)[O-])n(C)c1=O | > 100 | > 100 | > 100 | > 100 | > 100 | > 100 | > 100 | > 100 | > 100 | > 100 | > 100 | – | > 100 | > 100 | – | > 100 | > 100 | – | – | –
C/C(=N\N=C(\N)OB(F)F)c1ccccn1 | > 100 | > 100 | > 100 | > 100 | > 100 | > 100 | > 100 | – | > 100 | > 100 | > 100 | 85.7 | > 100 | > 100 | > 100 | > 100 | > 100 | > 100 | > 100 | > 100
N#Cc1ccc(Nc2cnc3cc(N)ccc3n2)cc1 | > 100 | > 100 | > 100 | > 100 | > 100 | > 100 | > 100 | > 100 | > 100 | > 100 | > 100 | > 100 | > 100 | > 100 | > 100 | > 100 | > 100 | – | – | –
COC(=O)/C=C1/OC(c2ccc(Br)cc2)=C(Br)C1=O | 3.31 | 17.1 | 33.6 | 22.4 | 6.31 | 11.3 | 17 | – | 17.5 | 10.5 | 14.2 | 25.2 | 24.4 | 10.7 | 18.6 | 32 | 19.9 | 28.1 | 25.5 | 15.1
COc1cc(O)c2c(=O)c3ccccc3n(C)c2c1 | > 100 | > 100 | > 100 | > 100 | > 100 | > 100 | > 100 | – | 79 | > 100 | > 100 | > 100 | > 100 | > 100 | > 100 | > 100 | > 100 | 59.2 | > 100 | > 100
CCC(C#N)N(Cc1ccc(CN(C(=O)c2ccccc2)C(C#N)CC)cc1)C(=O)c1ccccc1 (centres undefined) | > 100 | > 100 | > 100 | 67.7 | 50.2 | 43.9 | > 100 | – | 90.4 | > 100 | > 100 | 35.3 | 93.4 | > 100 | 36.7 | 93.3 | 25.8 | > 100 | 93.6 | 67
O=C1CCCCC1C1(O)C(=O)Nc2cc(F)ccc21 (centres undefined) | – | > 100 | > 100 | > 100 | > 100 | > 100 | > 100 | > 100 | > 100 | > 100 | > 100 | > 100 | > 100 | > 100 | > 100 | > 100 | > 100 | – | – | –
Cc1cc2c(cc1C)C(=O)c1ncccc1C2=O | 25 | 50.9 | > 100 | > 100 | > 100 | > 100 | > 100 | – | > 100 | > 100 | > 100 | > 100 | > 100 | 43.9 | > 100 | > 100 | 23.2 | > 100 | > 100 | > 100
COC1=C(C)C(=O)C2C(C1=O)C(c1ccc(OC)c(OC)c1)[C@H]2C (some centres undefined) | > 100 | > 100 | > 100 | > 100 | > 100 | > 100 | > 100 | > 100 | > 100 | > 100 | > 100 | > 100 | > 100 | > 100 | > 100 | > 100 | > 100 | – | – | –
